Test results published in article PMC6095608 (PLoS ONE, 2018).

Key:
[1] = parameters: method as in earlier work; conditions: clinical; lamivudine 150 mg twice daily with efavirenz 600 mg once daily; cited from earlier work
MATE1 = molecular target: T1, MATE1 (Homo sapiens, UniProt Q96FL8); experiment: Inhibition of net [14C]-metformin uptake in MDCK-MATE1 cells; assay type: cell-based; conditions: 50 μM metformin, 5 min, pH 8.0, efavirenz 0.01–50 μM, read-out: IC50, inhibition of net MATE1-mediated [14C]-metformin uptake
T1 construct: expressed in transfected cells; host or cells: MDCKII (MDCK-MATE1)
Method: The singly-transfected OCT1, OCT2, MATE1 or control MDCK cells were seeded on 12-well plates at a density of 0.5 x 10^6 cells per well and cultivated in standard cultivation medium MEM (Gibco) + 10% FBS. Forty-eight hours after seeding, uptake experiments with radiolabelled metformin were performed. Cells were washed with 500 μl pre-warmed HBSS buffer of pH 7.4 (for OCTs) or 8.0 (for MATE1). Solutions of [^14C]-metformin (50 μM) in HBSS buffer of pH 7.4 or 8.0 with or without efavirenz were then added, and the resulting mixtures were left to stand for an accumulation period of 5 minutes. […] After the accumulation period, the solutions were aspirated and the cells were washed three times with 500 μl ice-cold HBSS buffer of pH 7.4 or 8.0 before being lysed with 0.02% sodium dodecyl sulphate (SDS). The intracellular accumulation of radioactivity was detected using a liquid scintillation counter (Tri-Carb 2910 TR Perkin Elmer), and protein concentrations in the cell lysates were measured by the BCA protein assay. Net transporter-mediated uptake was obtained by subtracting the accumulation of metformin in vector control cells from that in drug transporter-overexpressing cells.
A p value of ≤ 0.05 was considered statistically significant. […]

OCT1 and MATE1 = experiment: Transcellular transport assay across doubly transfected MDCK-OCT1-MATE1 monolayers; assay type: cell-based, human; conditions: 10 μM efavirenz, 2 h
Method: Transport experiments employing polarized monolayers of MDCK-OCT1, MDCK-OCT2, or MDCK-MATE1 cell lines as well as doubly transfected MDCK-OCT1-MATE1 or MDCK-OCT2-MATE1 lines and the non-transfected parental control MDCK-Co cells grown on Transwell 3402 cell culture inserts (3.0 μm pore size, 24 mm diameter; Costar, Corning, NY) were performed as described previously. The number of cells per well was 0.5 x 10^6 in all experiments, and the cells were incubated for 3 days to confluence in standard cultivation medium MEM (Gibco) + 10% FBS. After 3 days’ cultivation, medium was removed from both sides and the cells of the monolayer were washed using pre-warmed PBS. […] The pH of the medium on the basolateral side was 7.4, while that on the apical side was set to 6.0 (adjusted by adding HCl or NaOH, when necessary) to ensure optimal MATE1 transport activity. Cells were incubated at 37°C in 5% CO2 for 2 hours. At the end of the incubation period, 50 μl aliquots were sampled and the rest of the medium was immediately removed. The cells were then washed twice with ice-cold PBS, the membranes supporting cellular monolayers were excised, and the cells were dissolved in a 0.02% SDS solution. The radioactivity of the collected samples and lysed monolayers was measured by liquid scintillation counting (Tri-Carb 2910 TR Perkin Elmer), and the protein concentration of the cell lysates was quantified using the BCA protein assay. Transport rates were recorded in pmol per mg protein in the cellular monolayer.

human OCT1 = system: human OCT1; parameters: method as in PMID 18490433; conditions: 5 μM efavirenz, 1 min incubation; cited from earlier work
human OCT2 = system: human OCT2; parameters: method as in PMID 18490433; conditions: 5 μM efavirenz, 1 min incubation; cited from earlier work
MDCK-Co cells = experiment: Transcellular transport assay across control MDCK-Co monolayers; assay type: cell-based, canine; conditions: 10 μM efavirenz, 2 nM MPP+, 2 h
Method: Transport experiments employing polarized monolayers of MDCK-OCT1, MDCK-OCT2, or MDCK-MATE1 cell lines as well as doubly transfected MDCK-OCT1-MATE1 or MDCK-OCT2-MATE1 lines and the non-transfected parental control MDCK-Co cells grown on Transwell 3402 cell culture inserts (3.0 μm pore size, 24 mm diameter; Costar, Corning, NY) were performed as described previously. The number of cells per well was 0.5 x 10^6 in all experiments, and the cells were incubated for 3 days to confluence in standard cultivation medium MEM (Gibco) + 10% FBS. After 3 days’ cultivation, medium was removed from both sides and the cells of the monolayer were washed using pre-warmed PBS. Experiments were initiated by adding HBSS buffer containing 10 mM HEPES (pH 7.4) or 10 mM MES (pH 6.0) with or without [^3H]-lamivudine (10 nM) or [^3H]-MPP^+ (2 nM) to either the apical or basolateral compartment. The pH of the medium on the basolateral side was 7.4, while that on the apical side was set to 6.0 (adjusted by adding HCl or NaOH, when necessary) to ensure optimal MATE1 transport activity. Cells were incubated at 37°C in 5% CO2 for 2 hours. At the end of the incubation period, 50 μl aliquots were sampled and the rest of the medium was immediately removed. […] Transport rates were recorded in pmol per mg protein in the cellular monolayer.

T1 sequence (Q96FL8 whole entry): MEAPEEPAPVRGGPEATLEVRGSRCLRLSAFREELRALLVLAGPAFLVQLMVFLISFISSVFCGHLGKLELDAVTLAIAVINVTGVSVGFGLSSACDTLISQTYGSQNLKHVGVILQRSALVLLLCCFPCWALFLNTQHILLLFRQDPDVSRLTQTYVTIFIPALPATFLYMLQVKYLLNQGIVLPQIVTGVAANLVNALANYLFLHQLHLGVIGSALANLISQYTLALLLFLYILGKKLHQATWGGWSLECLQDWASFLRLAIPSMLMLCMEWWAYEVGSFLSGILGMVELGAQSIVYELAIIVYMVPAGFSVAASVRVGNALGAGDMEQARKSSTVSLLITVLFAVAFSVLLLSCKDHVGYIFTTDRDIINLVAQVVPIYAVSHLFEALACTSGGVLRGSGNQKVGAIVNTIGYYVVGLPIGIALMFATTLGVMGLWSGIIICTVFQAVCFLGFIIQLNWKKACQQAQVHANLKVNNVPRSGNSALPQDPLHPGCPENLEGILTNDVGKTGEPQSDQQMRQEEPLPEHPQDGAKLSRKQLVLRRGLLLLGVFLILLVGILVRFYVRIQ

O=C1Nc2ccc(Cl)cc2[C@@](C#CC2CC2)(C(F)(F)F)O1 [efavirenz, Efavirenz]
Effect on lamivudine AUC [1]: no effect | Effect on lamivudine Cmax [1]: no effect | Increase of lamivudine Cmin [1]: 265% | IC50 (MATE1): 3.85 µM | Effect on basolateral-to-apical transport of [3H]-MPP+ (OCT1 and MATE1; 2 nM MPP+, MDCK-OCT1-MATE1): Inhibition | Effect on intracellular accumulation of [3H]-MPP+ (OCT1 and MATE1; 2 nM MPP+, MDCK-OCT1-MATE1 monolayers): unaffected | Effect on intracellular accumulation of [3H]-lamivudine (OCT1 and MATE1; 10 nM lamivudine, OCT1-MATE1 cells): remained unaffected | Effect on transcellular transport of [3H]-lamivudine (OCT1 and MATE1; 10 nM lamivudine, basal to apical, MDCK-OCT1-MATE1): significantly inhibited | Inhibitory effect on OCT1 with MPP+ as substrate (human OCT1): did not detect any inhibitory effect | Inhibitory effect on OCT2 with MPP+ as substrate (human OCT2): did not detect any inhibitory effect | Effect on basolateral-to-apical transport of [3H]-MPP+ (MDCK-Co cells): no inhibitory effect
